Test results from PMC6112376, “Comprehensive Analyses and Prioritization of Tox21 10K Chemicals Affecting Mitochondrial Function by in-Depth Mechanistic Studies” (Environmental Health Perspectives, 2018).
Like-named read-outs stand apart in the source and are kept apart here.

Legend:
[1] = test system: Caenorhabditis elegans strain PE255; assay: In vivo C. elegans ATP status assay
[2] = test system: mitochondrial respiratory chain complex IV; assay type: biochemical, rat
[3] = test system: Caenorhabditis elegans (Bristol N2); assay: C. elegans larval development and growth assay
HepG2 cells [4] = details: cited from earlier work
[5] = target: T1, mitochondrial respiratory chain complex II (Rattus norvegicus, UniProt P21913+Q641Z9+Q6PCT8+Q920L2); assay: Respiratory chain complex II activity; assay type: biochemical; details: tested up to 100μM
T1 construct: Submitochondrial particles were prepared by subjecting the intact rat mitochondria, isolated as described above, to three successive freeze–thaw cycles; from tissue; host or cells: rat liver mitochondria (submitochondrial particles)
T1 sequence (Q920L2 35-656): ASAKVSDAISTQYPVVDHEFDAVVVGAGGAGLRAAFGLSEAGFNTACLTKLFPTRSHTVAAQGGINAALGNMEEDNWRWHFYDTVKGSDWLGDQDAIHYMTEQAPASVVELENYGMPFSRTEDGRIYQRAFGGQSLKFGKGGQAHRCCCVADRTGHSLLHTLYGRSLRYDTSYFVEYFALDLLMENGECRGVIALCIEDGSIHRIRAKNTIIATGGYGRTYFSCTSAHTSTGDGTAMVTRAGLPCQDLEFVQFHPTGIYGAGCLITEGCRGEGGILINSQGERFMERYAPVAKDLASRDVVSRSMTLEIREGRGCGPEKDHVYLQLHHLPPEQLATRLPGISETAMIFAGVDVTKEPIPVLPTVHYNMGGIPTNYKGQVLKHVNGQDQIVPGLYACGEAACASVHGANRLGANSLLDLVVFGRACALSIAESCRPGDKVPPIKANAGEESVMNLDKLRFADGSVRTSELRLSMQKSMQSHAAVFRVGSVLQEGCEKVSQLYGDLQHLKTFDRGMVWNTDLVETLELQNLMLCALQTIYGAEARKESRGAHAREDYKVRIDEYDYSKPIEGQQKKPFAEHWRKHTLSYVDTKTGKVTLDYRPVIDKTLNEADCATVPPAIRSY
T1 sequence (P21913 31-282): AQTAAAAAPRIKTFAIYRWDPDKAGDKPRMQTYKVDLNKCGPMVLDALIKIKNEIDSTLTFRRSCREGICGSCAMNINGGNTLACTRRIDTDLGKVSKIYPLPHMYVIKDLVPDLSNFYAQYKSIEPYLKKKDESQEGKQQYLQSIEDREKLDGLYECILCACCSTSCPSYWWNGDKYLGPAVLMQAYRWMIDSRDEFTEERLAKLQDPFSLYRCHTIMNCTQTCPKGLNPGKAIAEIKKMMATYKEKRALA
T1 sequence (Q641Z9 1-169): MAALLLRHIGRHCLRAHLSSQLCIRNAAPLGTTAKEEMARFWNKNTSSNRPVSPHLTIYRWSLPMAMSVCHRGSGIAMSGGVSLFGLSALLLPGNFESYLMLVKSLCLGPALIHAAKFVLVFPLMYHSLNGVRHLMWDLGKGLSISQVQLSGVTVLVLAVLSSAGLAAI
T1 sequence (Q6PCT8 57-159): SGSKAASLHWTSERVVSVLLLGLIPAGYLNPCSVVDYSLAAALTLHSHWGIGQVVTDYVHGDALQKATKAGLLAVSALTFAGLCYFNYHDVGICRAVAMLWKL

HepG2 cells [6] = assay: Intracellular ATP content (cell viability) assay; assay type: cell-based, human; details: Homo sapiens, HepG2, 40 h treatment, mean±SD of three experiments
[7] = test system: mitochondrial respiratory chain complex V; assay type: biochemical, rat
[8] = test system: HeLa cells expressing YFP-Parkin; assay: Parkin translocation assay; assay type: cell-based, human; details: HeLa cells stably expressing YFP-Parkin; treated for 2 h
[9] = test system: p53 (p53-bla HCT-116 cells); assay: p53 β-lactamase reporter gene assay; assay type: cell-based, human; details: 16 h incubation; mean±SD of three experiments
hNSC = assay: MMP assay in human neural stem cells (hNSC); assay type: cell-based; details: Homo sapiens, Neural stem cell; 1 h treatment; fresh re-sourced stocks; mean±SD of three experiments; read-out: hNSC IC50 (MMP)
[10] = test system: mitochondrial respiratory chain complex III; assay type: biochemical, rat
HepG2 cells [11] = assay: cells; details: Homo sapiens
HepG2 cells [12] = assay: ROS-Glo hydrogen peroxide (ROS) assay; assay type: cell-based, human; details: Homo sapiens, HepG2; 2 h treatment; mean±SD of three experiments; read-out: ROS (HepG2) EC50
rat primary hepatocytes = assay: MMP assay in rat primary hepatocytes; details: for IC50: Rattus norvegicus, Hepatocyte
[13] = test system: Nrf2/ARE (ARE-bla HepG2 cells); assay: ARE β-lactamase reporter gene assay; assay type: cell-based, human; details: Homo sapiens, HepG2; 16 h incubation; mean±SD of three experiments; read-out: ARE (HepG2) EC50
[14] = test system: mitochondrial respiratory chain complex I; assay type: biochemical, rat; details: at 100μM

NNc1nc(-c2ccc([N+](=O)[O-])cc2)cs1 [2-Hydrazino-4-(4-nitrophenyl)thiazole]
LUM: mean difference in luminescence (ATP content) relative to plate controls ([1]; 0.5 µM): -0.01284 | LUM: mean difference in luminescence (ATP content) relative to plate controls ([1]; 1 µM): -0.00711 | LUM: mean difference in luminescence (ATP content) relative to plate controls ([1]; 5 µM): 0.1253 | LUM: mean difference in luminescence (ATP content) relative to plate controls ([1]; 10 µM): -0.00409 | LUM: mean difference in luminescence (ATP content) relative to plate controls ([1]; 25 µM): 0.7526 | LUM: mean difference in luminescence (ATP content) relative to plate controls ([1]; 50 µM): 0.8462 | LUM: mean difference in luminescence (ATP content) relative to plate controls ([1]; 75 µM): 1.473 | LUM: mean difference in luminescence (ATP content) relative to plate controls ([1]; 100 µM): 1.784 | minimal effective concentration ([1]; Caenorhabditis elegans, read-out: LEC LUM: lowest effect concentration for luminescence, a measure of nematode ATP content): 50 µM | Complex IV % inhibition (activity call) [2]: Inactive | EXT: mean difference in nematode size relative to plate controls ([3]; 0.5 µM): 0.08621 | EXT: mean difference in nematode size relative to plate controls ([3]; 1 µM): 0.08886 | EXT: mean difference in nematode size relative to plate controls ([3]; 5 µM): 0.126 | EXT: mean difference in nematode size relative to plate controls ([3]; 10 µM): 0.2572 | EXT: mean difference in nematode size relative to plate controls ([3]; 25 µM): 0.3181 | EXT: mean difference in nematode size relative to plate controls ([3]; 50 µM): 1.067 | EXT: mean difference in nematode size relative to plate controls ([3]; 75 µM): 1.594 | EXT: mean difference in nematode size relative to plate controls ([3]; 100 µM): 1.403 | minimal effective concentration ([3]; Caenorhabditis elegans, read-out: LEC EXT: lowest effect concentration for extinction, a measure of nematode size): 25 µM | MMP assays efficacy (%) qHTS-HepG2 (HepG2 cells [4]): -106±1% | IC50 (HepG2 cells [4]; read-out: MMP assays IC50 (µM) qHTS-HepG2): 1.6 ± 0.29 µM | Complex II % inhibition (activity call) [5]: Inactive | IC50 (HepG2 cells [6]; 5 mM glucose, read-out: ATP (HepG2, glucose) IC50): 48.1 ± 24.3 µM | IC50 (HepG2 cells [6]; 10 mM galactose, read-out: ATP (HepG2, galactose) IC50): 35.5 ± 4.54 µM | Complex V % inhibition (activity call) [7]: Inactive | Parkin recruitment [8]: Active | p53 (HCT-116) EC50 [9]: Inactive | IC50 (hNSC): 4.3 ± 1.42 µM | Complex III % inhibition (activity call) [10]: Inactive | IC50 (HepG2 cells [11]; HepG2, 1 h, read-out: HepG2 IC50 Galactose (MMP)): 14.2 ± 2.56 µM | IC50 (HepG2 cells [11]; HepG2, 1 h, read-out: HepG2 IC50 Glucose (MMP)): 12.1 ± 1.39 µM | IC50 (HepG2 cells [11]; HepG2, read-out: MMP assays IC50 (µM) HepG2): 1.26 µM | Emax (HepG2 cells [11]; HepG2, read-out: MMP assays efficacy (%) HepG2): 97% | EC50 (HepG2 cells [12]): 15.4 ± 16.6 µM | Rat hepatocytes (efficacy) (MMP) (rat primary hepatocytes; % of positive control, mean±SD of three experiments): −73.9±11.0% | IC50 (rat primary hepatocytes; 1 h, read-out: Rat hepatocytes IC50 (MMP)): 20.9 ± 11.3 µM | IC50 (rat primary hepatocytes; read-out: MMP assays IC50 (µM) Rat Hepatocytes): 7.9 ± 5.75 µM | MMP assays efficacy (%) Rat Hepatocytes (rat primary hepatocytes; rat hepatocytes, mean ± SD of three experiments): -89±18% | EC50 [13]: 9.83 ± 3.79 µM | Complex I % inhibition [14]: 21.6±7.1 at 100μM %
